Columns and labels:
[1] = test system: cancer cells; assay: killing of cancer cells, cytostatic effect confirmed using the crystal violet test; format: cell-based; conditions: endoperoxide in liposomes
Excerpt: A further molecule 22 forming endoperoxide has an additional hydroxyl group which with the cage wall can form hydrogen bridges (preferably in PVB nanoparticles, in PVB films or ethyl cellulose nanoparticles), which likewise causes an increase in the decomposition times.

[2] = PVB matrix, 37° C.

| Structure (SMILES) | killing of the cancer cells [1] | decomposition time of curve 27, factor longer than DMN in liquids ([2]; after renewed endoperoxide formation, slow component (curve 27)) [factor] | half-life from curve 24 greater than that for DMN in organic solvent ([2]; curve 24 versus DMN in organic solvent) | decomposition time from curve 25, factor greater ([2]; first decomposition, slow component (curve 25), compared with DMN in organic solvent) [factor] |
| --- | --- | --- | --- | --- |
| CC12C=CC(C)(OO1)c1ccccc12 [DMN endoperoxide, 1,4-dimethylnaphthalene endoperoxide] | not | > 30 | approximately 30% | ~6 |
| Cc1cccc2c1C1(C)C=CC2(C)OO1 (centres unmarked) [TMN endoperoxide] | killing of the cancer cells was ascertained | – | – | – |

Source: US9969617B2, “Material system containing endoperoxide with adaption of decomposition, and applications” (priority 2009, dated 2018)
